Experimental data reported in article PMC11111691, “Cystine-knot peptide inhibitors of HTRA1 bind to a cryptic pocket within the active site region” (Nature Communications, 2024).
Entries after “also recorded” stand apart in the source; their conditions may differ. Positions of bridges follow the written chain, without caps; N, C: chain ends. Residues, ends and D or L forms follow the SMILES beside them.

Key:
MDCK monolayer = assay: MDCK trans-well cell permeability assay; format: in vitro ADME, canine; settings: MDCK trans-well, apical to basolateral, up to 50 µM, 16 h, mass spectrometry
Protocol: (§4) We carried out a cell permeability study using a MDCK trans-well assay, which is commonly
(§5) used at Genentech for permeability screening of compounds . This assay measures the flux of test
(§6) compound (Papp, apparent permeability) across a MDCK monolayer from the apical to the
(§7) basolateral compartment over a 16 h period.
sensitive mass spectrometry method .
(§8) 10x10-6 cm/s and compounds with Papp values of <1x10-6 cm/s are considered to be of low
Protocol of permeability assay:
(§9) Experiments were carried out as described (Chen et al. Evaluating the utility of canine Mdr1 knockout
(§10) Madin-Darby canine kidney I cells in permeability screening and efflux substrate determination, Mol
(§11) Cells were seeded in 96-well Corning Transwell plates (PET membrane, 1 µm pore size) at 75,000 cells
(§12) per well and grown in DMEM media supplemented with 10% FBS, 1% pen-strep and 1x Glutamax at
(§13) 37C, 5% CO2 for 48 h to ensure monolayer formation. Stock solutions of the three CKPs 1B3, 1D3-ENI
(§14) and 1G10-ENI were diluted in Hank's Balanced Salt solution containing 25 mM HEPES, pH 7.4 and 25
(§15) µM of the monolayer integrity marker lucifer yellow. CKPs at a concentration of 50 µM were added to
(§16) the apical (donor) chamber and the CKP the apparent permeability (Papp) was determined by quantifying
(§17) the amount of CKP in the basolateral (receiver) chamber after 16 h incubation at 37C, 5% CO2. The
(§18) samples from the basolateral chamber were supplemented with the experiment analytical internal standard
(§19) (100 nM propranolol in 50% ACN:50% water with 0.1% formic acid) and then injected in a Sciex Zeno
(§20) TOF 7600 mass spectrometer using TOF/MS mode.

[1] = MDCK trans-well cell permeability assay; format: in vitro ADME, canine; settings: dog, MDCK trans-well (protocol of Chen et al. 2018, canine Mdr1 knockout MDCK I), apical to basolateral, 50 µM CKP, 37C, 5% CO2, HBSS 25 mM HEPES pH 7.4, TOF/MS read-out, n = 4-6, read-out: Papp (apparent permeability)
Protocol: as §4, §5, §6, §7
sensitive mass spectrometry method .
as §8
Protocol of permeability assay:
as §9, §10, §11, §12, §13, §14, §15, §16, §17, §18, §19, §20

C32 melanoma cells = assay: Cell toxicity assay (CellTiter-Glo), C32; format: cell-based, human
Protocol: (§1) reduction at the highest CKP concentration of 50 µM after 72 h (see results below). The absence of cell toxicity is likely due to the inability of the CKPs to penetrate cell membranes, which was experimentally determined in response to another reviewer. Due to space limitations we have not […]
(§2) Protocol of cell toxicity assay (Figure above):
(§3) HeLa cells or C32 melanoma cells were passaged in DMEM media supplemented with 10% FBS, 1% pen-strep and 1x Glutamax using standard culture conditions (5% CO2, 90% humidity at 37°C). At approximately 95% confluence cells were trypsinized, seeded onto 96-well plates (Corning) at 10,000 cells/well and grown for 24 h. Cells were then incubated with the CKPs 3B3, 1D3-ENI and 1G10-ENI (0, 0.6, 1.9, 5.6, 16.7 and 50 µM) at 37°C for 24 h or for 72h. As a positive control we used staurosporine (STS; 1µM). Cell viability was measured using the CellTiter-Glo luminescent cell viability assay (Promega) on an Envision Multilabel plate reader. Average of at least three independent experiments ± S.D. were plotted in Prism 10. Two-way ANOVA was performed on each dataset and compared to no drug samples and no significant viability reductions were observed, except for some treatments at the […]

HeLa cells = assay: Cell toxicity assay (CellTiter-Glo), HeLa; format: cell-based; settings: 0.6-50 µM CKP, 24 h and 72 h, at least three independent experiments
Protocol: as §1, §2, §3

CKP stability assay = format: physicochemical; settings: chemical stability, PBS containing 0.15% DMSO, 0.3 mM (~1 mg/ml), 37 °C, LC-MS, HPLC UV 220 nm peak area normalized to DMSO peak, two independent experiments, preliminary
Protocol: The CKPs 1G10 and 1G10-ENI were incubated in PBS containing 0.15% DMSO at a concentration of 0.3 mM (~1 mg/ml) at 37 °C for 30 days. Samples from two independently performed experiments were frozen at −20 °C until further analysis. Thawed samples were diluted in H2O and injected into LC-MS (Agilent). From the HPLC UV trace (at 220 nm) the CKP peak area was normalized to the DMSO peak area from the same run. The values obtained from multiple HPLC runs were averaged and shown as dot plot.

CC[C@H](C)[C@H](NC(=O)CNC(=O)[C@H](Cc1c[nH]c2ccccc12)NC(=O)CNC(=O)[C@@H]1CSSC[C@@H]2NC(=O)[C@H](CC(=O)O)NC(=O)[C@H](CC(=O)O)NC(=O)[C@H](Cc3c[nH]cn3)NC(=O)[C@H]([C@@H](C)O)NC(=O)[C@H](CCC(=O)O)NC(=O)[C@@H]3CSSC[C@H](NC(=O)[C@H]([C@@H](C)O)NC(=O)[C@H](CCC(N)=O)NC(=O)[C@H](CSSC[C@H](NC(=O)[C@@H](NC(=O)[C@@H]4CCCN4C(=O)[C@H](CC(=O)O)NC(=O)[C@@H](NC(=O)[C@@H]4CCCN4C(=O)[C@@H](N)Cc4ccc(O)cc4)C(C)C)[C@@H](C)CC)C(=O)N[C@@H](CC(N)=O)C(=O)N[C@@H](CCCCN)C(=O)N4CCC[C@H]4C(=O)N3)NC(=O)[C@H](Cc3ccccc3)NC(=O)[C@H](Cc3c[nH]c4ccccc34)NC(=O)[C@H](C)NC(=O)CNC(=O)[C@H](CO)NC2=O)C(=O)N[C@@H](Cc2ccc(O)cc2)C(=O)N[C@@H](Cc2ccc(O)cc2)C(=O)N[C@@H](C)C(=O)N[C@@H](CC(N)=O)C(=O)N[C@@H](Cc2c[nH]c3ccccc23)C(=O)N[C@@H](CO)C(=O)N1)C(=O)N[C@@H](CCCNC(=N)N)C(N)=O [1G10-ENI] (H-YPVDPICNKPCETHDDCSGAWFCQTCYYANWSCGWGIR-NH2; disulfide 7-23, 11-26, 17-33)
Cell permeability in the MDCK cell assay (MDCK monolayer): no detectable cell permeability
Papp A→B at 16 h, 50 µM [1]: < 0.003 ×10⁻⁶ cm/s
Viability reduction, C32 cells, 72 h (C32 melanoma cells; 50 µM CKP, 72 h): 13%
Cell viability, C32 melanoma cells (C32 melanoma cells; 0.6-50 µM CKP, 24 h and 72 h, at least three independent experiments): did not appreciably affect cell viability
Cell viability, HeLa cells (HeLa cells): did not appreciably affect cell viability
Stability: intact peptide after 30 days (CKP stability assay): no change in peptide mass at 30 days; also recorded: highly stable
